# Measured values from US8748412B2, “Phenylalanine derivatives and their use as non-peptide GLP-1 receptor modulators” (Argusina Bioscience Inc., priority 2011, dated 2014).
# Biological target: T1, human GLP1R (Homo sapiens, UniProt P43220)
# T1 construct: expressed in transfected cells; host or cells: CHO cells (ATCC), transient transfection with pCMV-human GLP1R
# Assay: Human GLP-1 receptor transfected cell assay (MRE/CRE-luciferase reporter gene, agonist activity)
# Format: cell-based
# Conditions: 6 h; conc. 3.16 μM; percentage of the activity of the control; read-out: Agonist Activity
# Outline: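 CHO cells transiently co-transfected with human GLP1R and MRE/CRE-driven luciferase reporter plasmids. Compound or GLP-1 (7-36 amide) standard dilution series added for 6 h at 37 °C, 5% CO2. Agonist activity read as Bright-Glo luciferase luminescence.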
# T1 sequence (P43220 24-463): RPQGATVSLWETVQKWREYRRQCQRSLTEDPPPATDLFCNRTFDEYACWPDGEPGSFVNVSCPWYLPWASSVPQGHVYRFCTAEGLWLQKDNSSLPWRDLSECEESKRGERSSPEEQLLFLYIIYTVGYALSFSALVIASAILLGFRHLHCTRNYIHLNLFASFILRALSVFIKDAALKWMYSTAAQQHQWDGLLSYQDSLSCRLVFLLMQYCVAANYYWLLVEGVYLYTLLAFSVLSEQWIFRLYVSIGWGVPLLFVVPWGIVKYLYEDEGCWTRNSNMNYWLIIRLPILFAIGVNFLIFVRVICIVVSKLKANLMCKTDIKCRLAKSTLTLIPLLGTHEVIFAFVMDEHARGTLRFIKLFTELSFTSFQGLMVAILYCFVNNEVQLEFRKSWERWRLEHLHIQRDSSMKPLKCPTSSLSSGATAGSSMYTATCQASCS
row,activation at 3.16 µM,SMILES
1,40 to 60%,Cc1ccc(-c2ccc(C(=O)NC(Cc3ccc(-c4nnc(-c5ccc(NC(=O)OC(C)(C)C)cc5)o4)c(F)c3)C(=O)O)o2)cc1 (stereo not shown) [Compound 14F]
2,> 60%,CC(C)(C)OC(=O)Nc1ccc(-c2nc(-c3ccc(CC(NC(=O)c4cncc(-c5ccc(F)cc5)c4)C(=O)O)cc3F)no2)cc1 (stereo not shown) [Compound 14H]

# Same assay, conditions: 6 h; conc. 10 μM; percentage of the activity of the control; read-out: Agonist Activity
row,activation at 10 µM,SMILES
1,> 60%,Cc1ccc(-c2cccc(NC(=O)NC(Cc3ccc(-c4noc(-c5ccc(NC(=O)OC(C)(C)C)cc5)n4)c(F)c3)C(=O)O)c2)cc1 (stereo not shown) [Compound 13R]
2,> 60%,CC(C)(C)OC(=O)Nc1ccc(-c2nc(-c3ccc(CC(NC(=O)Nc4cc(-c5ccc(F)c(Br)c5)n[nH]4)C(=O)O)cc3F)no2)cc1 (stereo not shown) [Compound 13S]
3,> 60%,CC(C)(C)OC(=O)Nc1ccc(-c2nc(-c3ccc(CC(NC(=O)Nc4ccc(-c5ccccc5F)cn4)C(=O)O)cc3F)no2)cc1 (stereo not shown) [Compound 13T]
4,> 60%,Cc1ccccc1-c1ccc(NC(=O)NC(Cc2ccc(-c3noc(-c4ccc(NC(=O)OC(C)(C)C)cc4)n3)c(F)c2)C(=O)O)nc1 (stereo not shown) [Compound 13U]
5,> 60%,CC(C)(C)OC(=O)Nc1ccc(-c2nc(-c3ccc(CC(NC(=O)Nc4ccc(-c5cccc(Cl)c5)cn4)C(=O)O)cc3F)no2)cc1 (stereo not shown) [Compound 13V]
6,> 60%,CC(C)(C)OC(=O)Nc1ccc(-c2nc(-c3ccc(CC(NC(=O)Nc4ccc(-c5cccc(F)c5)cn4)C(=O)O)cc3F)no2)cc1 (stereo not shown) [Compound 13W]
7,> 60%,CC(C)(C)OC(=O)Nc1ccc(-c2nc(-c3ccc(CC(NC(=O)Nc4ccc(-c5ccccc5)cn4)C(=O)O)cc3F)no2)cc1 (stereo not shown) [Compound 13X]
8,> 60%,COc1ccc(-c2ccc(NC(=O)NC(Cc3ccc(-c4noc(-c5ccc(NC(=O)OC(C)(C)C)cc5)n4)c(F)c3)C(=O)O)nc2)cc1 (stereo not shown) [Compound 13Y]
9,> 60%,CC(C)(C)OC(=O)Nc1ccc(-c2nc(-c3ccc(CC(NC(=O)Nc4ccc(-c5cccs5)cn4)C(=O)O)cc3F)no2)cc1 (stereo not shown) [Compound 13Z]
10,> 60%,Cc1ccc(-c2ccc(C(=O)NC(Cc3ccc(-c4noc(-c5ccc(NC(=O)OC(C)(C)C)cc5F)n4)c(F)c3)C(=O)O)o2)cc1 (stereo not shown) [Compound 14A]
11,> 60%,Cc1ccc(-c2cncc(C(=O)NC(Cc3ccc(-c4noc(-c5ccc(NC(=O)OC(C)(C)C)cc5)n4)c(F)c3)C(=O)O)c2)cc1 (stereo not shown) [Compound 14B]
12,> 60%,Cc1ccc(-c2cc(C(=O)NC(Cc3ccc(-c4noc(-c5ccc(NC(=O)OC(C)(C)C)cc5)n4)c(F)c3)C(=O)O)ccn2)cc1 (stereo not shown) [Compound 14C]
13,40 to 60%,Cc1ccc(-c2ccc(C(=O)NC(Cc3ccc(-c4noc(-c5ccc(NC(=O)OC(C)(C)C)c(C)c5)n4)c(F)c3)C(=O)O)o2)cc1 (stereo not shown) [Compound 14D]
14,> 60%,COc1ccc(-c2cncc(C(=O)NC(Cc3ccc(-c4noc(-c5ccc(NC(=O)OC(C)(C)C)cc5)n4)c(F)c3)C(=O)O)c2)cc1 (stereo not shown) [Compound 14G]
